Results reported in patent US20090247579A1, “2-[3H-THIAZOL-2-YLIDINEMETHYL]PYRIDINES AND RELATED COMPOUNDS AND THEIR USE” (CANCER RESEARCH TECHNOLOGY LIMITED, priority 2006, published 2009).

Legend:
[1] = system: A1 (MLH1+ve, MMR proficient); assay: Modified MTT assay, A1 line (A2780/cp70 + chromosome 3, MLH1 +ve); format: cell-based, human; details: Homo sapiens, A2780/CP70, read-out: A1 or E1 MLH1 +ve MMR proficient IC50
Method: (§1) Relative drug sensitivities (Resistance Factor) and IC50 values were determined by a modified MTT assay (see, e.g., Mosmann, 1983; Plumb et al., 1989), as described below: • (1) Trypsinise a sub-confluent monolayer culture and collect cells in growth medium containing serum. Centrifuge the suspension (200 g, 5 minutes) to pellet cells, re-suspend in growth medium, and count cells. Dilute cells to a density of 5×10^3 cells/mL allowing 60 mL of cell suspension for 3 microtitre plates. Transfer cell suspension to a 10 cm petri dish, and with a multichannel pipette add 200 μL to each well of the central 10 columns of a flat bottomed 96-well plate (80 wells per plate) starting with column 2 and ending with column 11. Add 200 μL of growth medium to the 8 wells in columns 1 and 12. Put the plates in a plastic box and incubate in a humidified atmosphere at 37° C. for 2-3 days so that cells are in the exponential phase of growth for drug addition. • (2) Prepare a serial 5-fold dilution of the cytotoxic drug in growth medium to give 8 concentrations. Pipette 6 mL of growth medium in to each of 7 universal containers (30 mL). Prepare 10 mL of the highest concentration of the drug and transfer 1.5 mL of this solution to the first universal container. Mix and then transfer 1.5 mL to the next universal container. Continue until the seventh universal container is reached. The concentrations should be chosen so that the highest concentration kills most of the cells and the lowest kills none of the cells. Normally, three plates are used for each drug to give triplicate determinations within one experiment. • (3) The medium is removed from all the wells in columns 2 to 11. This can be achieved with a hypodermic needle attached to a suction line. Cells in the 8 wells in columns 2 and 11 are fed with 200 μL of fresh growth medium. The drug solutions are transferred to 10 cm petri dishes and 200 μL added to all 8 wells of a column. For ease of analysis arrange the drug solutions in order so that the highest is in column 3 down to the lowest in column 10. Plates are returned to the plastic box and incubated for 24 hours. • (4) At the end of the drug exposure period, the medium is removed from all wells containing cells and the cells are fed with 200 μL of fresh medium. • (5) The plates are fed daily for two more days. • (6) The plates are fed with 200 μL of fresh medium and 50 μL of the MTT solution (5 mg/mL in PBS) is added to all wells in columns 1 to 11. Plates are wrapped in aluminium foil and incubated for 4 hours in a humidified atmosphere at 37° C. • (7) The medium and MTT are then removed from the wells and the purple MTT-formazan crystals dissolved by addition of 200 μL of DMSO to all wells in columns 1 to 11. Glycine buffer is added (25 μL per well) to all wells containing DMSO. • (8) Absorbance is recorded at 570 nm with the wells in column 1, which contained medium and MTT but no cells used as a blank. • (9) A graph is plotted of absorbance (y-axis) against drug concentration (x-axis). The mean absorbance reading from the wells in columns 2 and 11 is used as the control absorbance and the IC50 concentration is determined as the drug concentration required to reduce the absorbance to half that of the control. IC10 or IC90 values can be determined in the same manner.
(§2) A1, E1, and A2 are derived by transfer of human chromosome 3 into A2780/cp70. MLH1 is located on chromosome 3.
(§3) IC50 values (μM) for A1 (MLH1+ve, MMR proficient) or E1 (MLH1+ve, MMR proficient) and A2 (MLH1−ve, MMR deficient) lines and Resistance Factors (RF) (the fold difference in resistance between the A2 line, MMR deficient, and the A1 line, MMR proficient) were determined based on the MTT assay described above for several compounds of the present invention (including, e.g., MMR201). Compounds showing increased activity against the MLH1 deficient A2 line compared to the MLH1 proficient A1 or E1 line have RF values less than 1.

A2780/mcp1 = assay: Modified MTT assay, A2780/mcp1 (cisplatin resistant, MMR deficient); format: cell-based, human; details: 24 hour drug exposure; for IC50: Homo sapiens, A2780/mcp1, MTT; for A2780/mcp1 RF (Resistance Factor): fold difference in resistance from parental A2780
Method: as §1
(§4) A2780/cp70 and A2780/mcp1 have lost expression of MLH1, have lost MMR activity, and have microsatellite instability compared to A2780. The CpG island at the MLH1 gene is methylated in A2780/cp70 and A2780/mcp1, but not A2780.
(§5) IC50 values (μM) for A2780, A2780/cp70, and A2780/mcp1 and Resistance Factors (RF) (the fold difference in resistance from parental A2780) were determined based on the MTT assay described above for several compounds of the present invention (including, e.g., MMR201).

A2780/cp70 = assay: Modified MTT assay, A2780/cp70 (cisplatin resistant, MMR deficient); format: cell-based, human; details: 24 hour drug exposure; for IC50: Homo sapiens, A2780/CP70, MTT; for A2780/cp70 RF (Resistance Factor): fold difference in resistance from parental A2780
Method: as §1, §4, §5

A2780 = assay: Modified MTT assay, A2780 (parental, MMR proficient); format: cell-based, human; details: Homo sapiens, A2780, 24 hour drug exposure
Method: as §1, §4, §5

[2] = system: A2 (MLH1−ve, MMR deficient); assay: Modified MTT assay, A2 line (A2780/cp70 + chromosome 3, MLH1 -ve); format: cell-based, human; details: for IC50: Homo sapiens, A2780/CP70, A2 line
Method: as §1, §2, §3

[3] = system: E1 (MLH1+ve, MMR proficient); assay: Modified MTT assay, E1 line (A2780/cp70 + chromosome 3, MLH1 +ve); format: cell-based; details: Homo sapiens, read-out: A1 or E1 MLH1 +ve MMR proficient IC50
Method: Relative drug sensitivities (Resistance Factor) and IC50 values were determined by a modified MTT assay (see, e.g., Mosmann, 1983; Plumb et al., 1989), as described below: • (1) Trypsinise a sub-confluent monolayer culture and collect cells in growth medium containing serum. Centrifuge the suspension (200 g, 5 minutes) to pellet cells, re-suspend in growth medium, and count cells. Dilute cells to a density of 5×10^3 cells/mL allowing 60 mL of cell suspension for 3 microtitre plates. Transfer cell suspension to a 10 cm petri dish, and with a multichannel pipette add 200 μL to each well of the central 10 columns of a flat bottomed 96-well plate (80 wells per plate) starting with column 2 and ending with column 11. Add 200 μL of growth medium to the 8 wells in columns 1 and 12. […] Glycine buffer is added (25 μL per well) to all wells containing DMSO. • (8) Absorbance is recorded at 570 nm with the wells in column 1, which contained medium and MTT but no cells used as a blank. • (9) A graph is plotted of absorbance (y-axis) against drug concentration (x-axis). The mean absorbance reading from the wells in columns 2 and 11 is used as the control absorbance and the IC50 concentration is determined as the drug concentration required to reduce the absorbance to half that of the control. IC10 or IC90 values can be determined in the same manner. […]

[4] = fold difference in resistance between A2 (MMR deficient) and A1 (MMR proficient)

SMILES	IC50 [1] [nM]	IC50 (A2780/mcp1) [nM]	IC50 (A2780/cp70) [nM]	IC50 [2] [nM]	IC50 [3] [nM]	A2780/mcp1 RF (Resistance Factor) (A2780/mcp1)	A2780/cp70 RF (Resistance Factor) (A2780/cp70)	IC50 (A2780) [nM]	RF (Resistance Factor) [2, 4]	RF (Resistance Factor) ([2]; A2 (MMR deficient) versus E1 (MMR proficient))
CC[n+]1c(/C=C2\Sc3oc4ccccc4c3N2C)ccc2ccccc21.[I-] [MMR211]	144 ± 9	38 ± 6	40 ± 4	27 ± 3	–	0.55	0.58	69 ± 7	0.19	–
CC[n+]1ccccc1/C=C1\SC=CN1C.[I-] [MMR302]	2830 ± 460	12900 ± 1000	7100 ± 370	4150 ± 800	–	0.95	0.52	13600 ± 1550	1.5	–
CC[n+]1ccccc1/C=C1\SC=C(C)N1C.[I-] [MMR304]	54200 ± 10800	35600 ± 1960	18000 ± 1300	16100 ± 2540	–	0.55	0.28	64500 ± 3910	0.30	–
CC[n+]1ccccc1/C=C1\Sc2oc3ccccc3c2N1C.[I-] [MMR307]	–	716 ± 41	932 ± 95	648 ± 85	937 ± 66	0.95	1.24	752 ± 73	–	0.69

Second part, led by results:

IC50 [1] [nM]	IC50 (A2780/mcp1) [nM]	IC50 (A2780/cp70) [nM]	IC50 [2] [nM]	IC50 [3] [nM]	SMILES	A2780/mcp1 RF (Resistance Factor) (A2780/mcp1)	A2780/cp70 RF (Resistance Factor) (A2780/cp70)	IC50 (A2780) [nM]	RF (Resistance Factor) [2, 4]	RF (Resistance Factor) ([2]; A2 (MMR deficient) versus E1 (MMR proficient))
4100 ± 450	481 ± 48	435 ± 22	681 ± 76	–	CC[n+]1c(/C=C2\SC=CN2C)ccc2ccccc21.[I-] [MMR212]	0.29	0.26	1670 ± 370	0.17	–
2550 ± 180	358 ± 103	325 ± 44	530 ± 18	–	CC[n+]1c(/C=C2\SC=C(C)N2C)ccc2ccccc21.[I-] [MMR213]	0.29	0.26	1230 ± 51	0.21	–
